Source: patent US10981926B2 (Janssen Pharmaceutica NV, priority 2016, dated 2021)
Where two headings read alike, the source gives them in different places.

Tests used:
AR L701H = AR L701H (Homo sapiens, UniProt P10275, L702H); assay: Luciferase Transcriptional Reporter Assay, AR L701H (HepG2); format: cell-based
Experimental: HepG2 cells were maintained in EMEM supplemented with 10% FBS. One day before transfection, the media was changed to EMEM with 10% CSS. T-150 flasks were transiently transfected using 120 μL Lipofectamine 2000 (Life Technologies), 30 μg mutant cDNA (expression vector)—mutant cDNA tested were L701H, T877A, W741C and H874Y—and 40 μg 4×ARE-Luciferase (reporter vector) in OptiMEM and the flasks were incubated overnight. Cells were then trypsinized, counted and resuspended at 500,000 cells/mL. For agonist mode, the compounds of Formula (I) were serially diluted and 50 μL of the compound was added per well. 50 μL of the cells were added to each well and incubated for 48 hours. For antagonist mode, a final concentration of 90 pM R1881 was added to the diluted compounds and incubated for 48 hours. The plates were then assayed using SteadyGlo and read on the Envision. Percent Stimulation and Inhibition were determined and analyzed using GraphPad Prism.
F876L agonism was evident at 3 and 10 μM (5%) but zero at 30 μM. The antagonistic (IC50) and agonistic (EC50) values for each of the AR cDNA used in the reporter assays are summarized. All values are calculated relative to the activity of R1881 induced androgen receptor activity (n≥3). Also indicated are the maximal inhibition and extent of induction of androgen dependent signaling (%).

LNCaP SRαF876L cells = assay: Castrate Resistant Prostate Cancer Xenograft Study; format: in vivo, mouse; conditions: castrate SHO mice
Experimental: Castrate six to seven week old male SCID Hairless Outbred mice (SHO, Charles Rivers Laboratories) were used as the host strain for xenograft studies. LNCaP SRαF876L cells were cultured as 3-D spheroids and expanded prior to subcutaneous injection on the flank of the animals (supplied post castration). Briefly, 5 mls of cells in media+5 mls of cultrex were premixed prior to plating of 500 μl=2×10^5 cells per well of a 24-well plate. Plates were incubated @ 37° C. for 30 min before addition of complete media on top and returned to incubator for growth of 3-D colonies. After 7 days, media was removed, plates chilled and contents of each well, 500 μl cultrex and cells, injected into flank of a recipient mouse. Tumor volume (length×width2/2) was monitored weekly. When tumors reached an average volume of ˜200 mm^3, animals were randomized into treatment groups. During the treatment period tumor volume was monitored bi-weekly. At study end, tumor growth inhibition (TGI) was calculated: 100−(Treated/Control*100). At the termination of study tumors were collected and stored for further analyses.

[1] = target: AR-FL and AR-V7 in 22RV1 cells; assay: 22RV1 AR-FL and AR-V7 Transcriptional Reporter Assay; format: cell-based
Experimental: 22RV1 were obtained from ATCC and cultured in RPMI 1640 supplemented with 10% FBS. Cells were seeded at a density of 15,000 cells/well into Greiner 384-well, white, optical-bottom plates in RPMI 1640 phenol red-free medium with 1% charcoal stripped FBS and incubated for 2 days at 37° C. The cells were treated with a compound or Formula (I) in 12-point dose-response, both in the presence and absence of 0.1 nM R1881 for 18-24 hrs. At the end of assay, Steady-Glo reagent (Promega) was added to each well according to the manufacturer's instructions, placed on a shaker at 300 rpm for 10 min, and luminescence recorded using an EnVision plate reader (Perkin Elmer). The data was exported to GraphPad Prism and analyzed using the Four Parameter equation to obtain IC50 values for each compound. Each compound was tested in at least three independent experiments.

LNCaP WT = assay: LNCaP Proliferation Assay (LNCaP WT); format: cell-based; conditions: Homo sapiens, 96 h, 4 days, CellTiter-Glo, normalized to 0.1 nM R1881 stimulation
Experimental: LNCaP cells were expanded in RPMI 10% FBS in T150 flasks. The cells were dislodged with 0.25% Trypsin, washed in complete media, centrifuged (300 g, 3 min), and the supernatant aspirated. The cells were resuspended in RPMI phenol-red free media with 1% charcoal-stripped serum (CSS) and counted using a ViCELL (Beckman-Coulter). 7500 cells were added to each well of a white optical bottom 384-well plate and incubated for 2 days at 37° C. 5% CO2. Compound dilutions were prepared in RPMI CSS using 50 mM stock solutions and added to the cells either alone (agonist mode) or in combination with 0.1 nM R1881 (antagonist mode). The plates were incubated for 4 days, followed by addition of CellTiter-Glo Luminescent Cell Viability kit reagent (Promega). The plates were placed on a shaker at 3000 rpm for 10 minutes and then read on an EnVision plate reader (Perkin Elmer) using Luminescence assay default settings. The data was analyzed, normalized to 0.1 nM R1881 stimulation, and plotted in GraphPad Prism.

AR (human) = AR (human) (Homo sapiens (Human), UniProt P10275, T878A); assay: Radioligand binding to AR; conditions: [3H]methyltrienolone, LNCaP cells (cytosol)
AR (human), sequence (P10275 whole entry T878A): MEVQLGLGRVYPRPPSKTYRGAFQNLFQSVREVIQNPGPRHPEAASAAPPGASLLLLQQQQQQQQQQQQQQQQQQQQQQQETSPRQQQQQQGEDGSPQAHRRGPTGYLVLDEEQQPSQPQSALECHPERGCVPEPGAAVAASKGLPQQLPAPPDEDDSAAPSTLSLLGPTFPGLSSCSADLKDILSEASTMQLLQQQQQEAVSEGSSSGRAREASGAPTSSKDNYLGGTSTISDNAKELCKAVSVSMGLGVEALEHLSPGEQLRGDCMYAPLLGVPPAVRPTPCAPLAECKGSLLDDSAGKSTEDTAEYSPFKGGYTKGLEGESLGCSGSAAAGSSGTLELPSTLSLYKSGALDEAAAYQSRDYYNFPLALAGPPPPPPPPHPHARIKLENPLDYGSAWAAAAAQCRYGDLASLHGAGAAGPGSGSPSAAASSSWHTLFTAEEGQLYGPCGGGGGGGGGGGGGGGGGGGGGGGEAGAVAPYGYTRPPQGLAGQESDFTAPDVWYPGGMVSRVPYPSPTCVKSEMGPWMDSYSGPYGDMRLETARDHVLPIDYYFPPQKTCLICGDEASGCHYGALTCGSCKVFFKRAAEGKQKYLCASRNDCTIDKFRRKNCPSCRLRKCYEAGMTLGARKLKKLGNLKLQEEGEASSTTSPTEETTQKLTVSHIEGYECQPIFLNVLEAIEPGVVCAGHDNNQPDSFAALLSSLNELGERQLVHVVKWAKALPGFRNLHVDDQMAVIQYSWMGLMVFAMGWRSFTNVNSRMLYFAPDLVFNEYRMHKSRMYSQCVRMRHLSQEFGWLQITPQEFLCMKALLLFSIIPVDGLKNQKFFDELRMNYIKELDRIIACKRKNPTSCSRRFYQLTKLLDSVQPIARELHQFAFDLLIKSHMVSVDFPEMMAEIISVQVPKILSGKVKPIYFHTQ
Experimental: Radioligand binding assays were performed with the cell extracts and ligands as detailed below. Complete methodology is contained within the cited publications. Kd values were determined by Non-Specific Incubation Detection Method.
AR (human) (agonist radioligand) LNCaP cells (cytosol)
[^3H]methyltrienolone 1 nM 0.8 nM mibolerone (1 μM) 24 h 4° C. Scintillation counting.
The results are expressed as a percent of control specific binding measured specific binding*100 control specific binding and as a percent inhibition of control specific binding 100-(measured specific binding*100) control specific binding obtained in the presence of compound.
The IC50 values (concentration causing a half-maximal inhibition of control specific binding) and Hill coefficients (nH) were determined by non-linear regression analysis of the competition curves generated with mean replicate values using Hill equation curve fitting. Y=D+[A−D] 1+(C/C50)nH
wherein Y=specific binding, A=left asymptote of the curve, D=right asymptote of the curve, C=compound concentration, C50=IC50, and nH=slope factor. […]
The inhibition constants (Ki) were calculated using the Cheng Prusoff equation: Ki=[…]
Radioligand binding inhibition and affinity calculations were determined using [^3H]-methyltrienolone, [^3H]-dexamethasone and [^3H]-estradiol for AR, GR and ER, respectively. […]

AR L701H, sequence (P10275 whole entry L702H): as the sequence (P10275 whole entry T878A) above, with L702H, A878T counted along it

N#Cc1ncc(N2C(=O)C3(CCC3)N(c3ccc(OC4CCNCC4)nc3)C2=S)cc1C(F)(F)F [Cpd 43, 5-[5-oxo-8-[6-(4-piperidyloxy)-3-pyridyl]-7-thioxo-6,8-diazaspiro[3.4]octan-6-yl]-3-(trifluoromethyl)pyridine-2-carbonitrile]
Emax (AR L701H; HepG2, agonist mode, relative to R1881, read-out: Agonism % Emax, AR construct L701H): 0%
IC50 (AR L701H; HepG2, antagonist mode, 90 pM R1881, 48 hours, read-out: Antagonism IC50, AR construct L701H): 10000 nM
Emax (AR L701H; HepG2, antagonist mode, maximal inhibition, read-out: Antagonism % Emax, AR construct L701H): 90%
TGI (LNCaP SRαF876L cells; 30 mg/kg): 91% (n = 9)
TGI (LNCaP SRαF876L cells; 50 mg/kg): 87% (n = 10)
IC50 ([1]; 22RV1, in the absence of 0.1 nM R1881, read-out: IC50, agonist mode): 121000 nM
IC50 ([1]; 22RV1, in the presence of 0.1 nM R1881, read-out: IC50, antagonist mode): 348 nM
IC50 (LNCaP WT): 435 nM
IC50 (AR (human)): 6.9 nM
Ki (AR (human); Cheng Prusoff): 3 nM
